pEC50: −log10 of the molar value.
How the values were obtained:
human CB2 receptors = human CB2 receptors (Homo sapiens (Human), UniProt P34972); assay: cAMP assay, CHO cells expressing human CB2 receptors; assay type: cell-based; conditions: functional cAMP assay, CHO cells expressing human CB2; read-out: human CB2 EC50
Procedure: (§1) CHO cells expressing human CB1 or CB2 receptors are seeded 17-24 hours prior to the experiment 50.000 cells per well in a black 96 well plate with flat clear bottom (Corning Costar #3904) in DMEM (Invitrogen No. 31331), 1×HT supplement, with 10% fetal calf serum and incubated at 5% CO2 and 37° C. in a humidified incubator. The growth medium was exchanged with Krebs Ringer Bicarbonate buffer with 1 mM IBMX and incubated at 30° C. for 30 min. Compounds were added to a final assay volume of 100 μl and incubated for 30 min at 30° C. Using the cAMP-Nano-TRF detection kit the assay (Roche Diagnostics) was stopped by the addition of 50 μl lysis reagent (Tris, NaCl, 1.5% Triton X100, 2.5% NP40, 10% NaN3) and 50 μl detection solutions (20 μM mAb Alexa700-cAMP 1:1, and 48 μM Ruthenium-2-AHA-cAMP) and shaken for 2 h at room temperature. The time-resolved energy transfer is measured by a TRF reader (Evotec Technologies GmbH), equipped with a ND:YAG laser as excitation source. The plate is measured twice with the excitation at 355 nm and at the emission with a delay of 100 ns and a gate of 100 ns, total exposure time 10 s at 730 (bandwidth 30 nm) or 645 nm (bandwidth 75 nm), respectively.
(§2) EC50 values were determined using Activity Base analysis (ID Business Solution, Limited).

human CB1 receptors = human CB1 receptors (Homo sapiens (Human), UniProt P21554); assay: cAMP assay, CHO cells expressing human CB1 receptors; assay type: cell-based; conditions: functional cAMP assay, CHO cells expressing human CB1; read-out: human CB1 EC50
Chain of human CB1 receptors (P21554 whole entry): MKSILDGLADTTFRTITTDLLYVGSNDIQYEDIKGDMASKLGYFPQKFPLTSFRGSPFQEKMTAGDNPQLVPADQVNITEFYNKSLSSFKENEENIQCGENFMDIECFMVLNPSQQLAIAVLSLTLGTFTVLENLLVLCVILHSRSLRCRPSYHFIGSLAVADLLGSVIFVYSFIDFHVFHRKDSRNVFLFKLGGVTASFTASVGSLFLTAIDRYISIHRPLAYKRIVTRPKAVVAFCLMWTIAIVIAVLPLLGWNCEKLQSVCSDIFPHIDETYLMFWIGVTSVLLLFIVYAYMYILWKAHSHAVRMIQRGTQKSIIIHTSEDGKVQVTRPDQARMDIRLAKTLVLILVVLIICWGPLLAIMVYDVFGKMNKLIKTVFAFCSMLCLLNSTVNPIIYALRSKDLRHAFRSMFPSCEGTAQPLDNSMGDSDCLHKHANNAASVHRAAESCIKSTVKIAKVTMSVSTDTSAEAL
Procedure: as §1, §2

Chain of human CB2 receptors (P34972 whole entry): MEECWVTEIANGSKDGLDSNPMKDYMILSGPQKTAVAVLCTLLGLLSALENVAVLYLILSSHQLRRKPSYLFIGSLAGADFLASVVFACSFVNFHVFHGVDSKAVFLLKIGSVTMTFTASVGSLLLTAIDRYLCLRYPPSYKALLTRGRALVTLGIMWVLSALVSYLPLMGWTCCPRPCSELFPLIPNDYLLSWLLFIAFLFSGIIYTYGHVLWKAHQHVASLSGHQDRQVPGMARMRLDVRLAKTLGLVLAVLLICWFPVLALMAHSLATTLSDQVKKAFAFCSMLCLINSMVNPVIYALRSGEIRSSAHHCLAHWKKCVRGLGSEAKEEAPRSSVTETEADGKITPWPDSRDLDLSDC

Structure (SMILES)	pEC50 (human CB2 receptors)	pEC50 (human CB1 receptors)
CC(C)CC(CNC(=O)c1ccc(N2CC(F)(F)C2)c(OCC2CC2)n1)C(=O)O (stereo not shown) [Example 11, 2-[({[6-(Cyclopropylmethoxy)-5-(3,3-difluoroazetidin-1-yl)pyridin-2-yl]carbonyl}amino)methyl]-4-methylpentanoic acid]	6.01	< 5.00
CC(C)[C@H](CC(N)=O)NC(=O)c1ccc(N2CC(F)(F)C2)c(OCC2CC2)n1 [Example 19, 6-Cyclopropylmethoxy-5-(3,3-difluoro-azetidin-1-yl)-pyridine-2-carboxylic acid ((S)-1-carbamoylmethyl-2-methyl-propyl)-amide]	8.49	< 5.00
NC(=O)[C@H]1CCCC[C@H]1NC(=O)c1ccc(N2CC(F)(F)C2)c(OCC2CC2)n1 [Example 21, (−)-cis-6-Cyclopropylmethoxy-5-(3,3-difluoro-azetidin-1-yl)-pyridine-2-carboxylic acid (2-carbamoyl-cyclohexyl)-amide]	6.39	< 5.00
CCOC(=O)CC(CC(C)C)NC(=O)c1ccc(C2CC2)c(OCC2CC2)n1 (stereo not shown) [Example 22, 3-[(5-Cyclopropyl-6-cyclopropylmethoxy-pyridine-2-carbonyl)-amino]-5-methyl-hexanoic acid ethyl ester]	7.92	< 5.00
NC(=O)CC1(NC(=O)c2ccc(C3CC3)c(OCC3CC3)n2)COC1 [Example 23, 5-Cyclopropyl-6-cyclopropylmethoxy-pyridine-2-carboxylic acid (3-carbamoylmethyl-oxetan-3-yl)-amide]	8.85	< 5.00
CC(C)C[C@@H](CC(N)=O)NC(=O)c1ccc(C2CC2)c(OCC2CC2)n1 [Example 24, (−)-5-Cyclopropyl-6-cyclopropylmethoxy-pyridine-2-carboxylic acid (1-carbamoylmethyl-3-methyl-butyl)-amide]	8.52	< 5.00
CC(C)C[C@H](CC(N)=O)NC(=O)c1ccc(C2CC2)c(OCC2CC2)n1 [Example 25, (+)-5-Cyclopropyl-6-cyclopropylmethoxy-pyridine-2-carboxylic acid (1-carbamoylmethyl-3-methyl-butyl)-amide]	8.37	< 5.00
NC(=O)CC1(NC(=O)c2ccc(N3CC(F)(F)C3)c(OCC3CC3)n2)COC1 [Example 26, 6-Cyclopropylmethoxy-5-(3,3-difluoro-azetidin-1-yl)-pyridine-2-carboxylic acid (3-carbamoylmethyl-oxetan-3-yl)-amide]	8.25	< 5.00
CC(C)(C)[C@@H](CC(N)=O)NC(=O)c1ccc(C2CC2)c(OCC2CC2)n1 [Example 29, 5-Cyclopropyl-6-cyclopropylmethoxy-pyridine-2-carboxylic acid ((R)-1-carbamoylmethyl-2,2-dimethyl-propyl)-amide]	7.63	< 5.00
NC(=O)CC(NC(=O)c1ccc(C2CC2)c(OCC2CC2)n1)C1CCOCC1 (stereo not shown) [Example 30, 5-Cyclopropyl-6-cyclopropylmethoxy-pyridine-2-carboxylic acid [2-carbamoyl-1-(tetrahydro-pyran-4-yl)-ethyl]-amide]	8.08	< 5.00
CC(Oc1nc(C(=O)NC2(CC(N)=O)COC2)ccc1C1CC1)C(F)(F)F (stereo not shown) [Example 33, 5-Cyclopropyl-6-(2,2,2-trifluoro-1-methyl-ethoxy)-pyridine-2-carboxylic acid (3-carbamoylmethyl-oxetan-3-yl)-amide]	6.84	< 5.00
CC(C)(C)[C@H](CC(N)=O)NC(=O)c1ccc(C2CC2)c(OCC2CC2)n1 [Example 35, 5-Cyclopropyl-6-cyclopropylmethoxy-pyridine-2-carboxylic acid ((S)-1-carbamoylmethyl-2,2-dimethyl-propyl)-amide]	9.22	6.68
CC(C)CS(=O)(=O)c1nc(C(=O)NC2(CC(N)=O)COC2)ccc1C1CC1 [Example 36, 5-Cyclopropyl-6-(2-methyl-propane-1-sulfonyl)-pyridine-2-carboxylic acid (3-carbamoylmethyl-oxetan-3-yl)-amide]	6.59	< 5.00
CNC(=O)CC1(NC(=O)c2ccc(N3CC(F)(F)C3)c(OCC3CC3)n2)COC1 [Example 37, 6-Cyclopropylmethoxy-5-(3,3-difluoro-azetidin-1-yl)-pyridine-2-carboxylic acid (3-methylcarbamoylmethyl-oxetan-3-yl)-amide]	6.44	< 5.00
CNC(=O)CC1(NC(=O)c2ccc(C3CC3)c(OCC3CC3)n2)COC1 [Example 38, 5-Cyclopropyl-6-cyclopropylmethoxy-pyridine-2-carboxylic acid (3-methylcarbamoylmethyl-oxetan-3-yl)-amide]	7.00	< 5.00
CNC(=O)CC1(NC(=O)c2ccc(C(F)(F)F)c(OCC3CC3)n2)COC1 [Example 39, 6-Cyclopropylmethoxy-5-trifluoromethyl-pyridine-2-carboxylic acid (3-methylcarbamoylmethyl-oxetan-3-yl)-amide]	6.22	< 5.00
CN(C)C(=O)CC1(NC(=O)c2ccc(C3CC3)c(OCC3CC3)n2)COC1 [Example 40, 5-Cyclopropyl-6-cyclopropylmethoxy-pyridine-2-carboxylic acid (3-dimethylcarbamoylmethyl-oxetan-3-yl)-amide]	6.46	< 5.00
CN(C)C(=O)CC1(NC(=O)c2ccc(N3CC(F)(F)C3)c(OCC3CC3)n2)COC1 [Example 41, 6-Cyclopropylmethoxy-5-(3,3-difluoro-azetidin-1-yl)-pyridine-2-carboxylic acid (3-dimethylcarbamoylmethyl-oxetan-3-yl)-amide]	6.53	< 5.00
CN(C)C(=O)CC1(NC(=O)c2ccc(C(F)(F)F)c(OCC3CC3)n2)COC1 [Example 42, 6-Cyclopropylmethoxy-5-trifluoromethyl-pyridine-2-carboxylic acid (3-dimethylcarbamoylmethyl-oxetan-3-yl)-amide]	6.01	< 5.00
NC(=O)C[C@@H](NC(=O)c1ccc(C2CC2)c(OCC2CC2)n1)c1cccc(Cl)c1 [Example 43, 5-Cyclopropyl-6-cyclopropylmethoxy-pyridine-2-carboxylic acid [(R)-2-carbamoyl-1-(3-chloro-phenyl)-ethyl]-amide]	6.98	< 5.00
CC(C)[S+]([O-])c1nc(C(=O)NC2(CC(N)=O)COC2)ccc1Br (stereo not shown) [Example 44, 5-Bromo-6-(propane-2-sulfinyl)-pyridine-2-carboxylic acid (3-carbamoylmethyl-oxetan-3-yl)-amide]	6.38	< 5.00
COC(=O)CC1(NC(=O)c2ccc(C3CC3)c(OCC3CC3)n2)CCN(C(=O)OC(C)(C)C)CC1 [Example 45, 4-[(5-Cyclopropyl-6-cyclopropylmethoxy-pyridine-2-carbonyl)-amino]-4-methoxycarbonylmethyl-piperidine-1-carboxylic acid tert-butyl ester]	6.63	< 5.00
NC(=O)CC1(NC(=O)c2ccc(OC(F)(F)F)c(OCC3CC3)n2)COC1 [Example 46, 6-Cyclopropylmethoxy-5-trifluoromethoxy-pyridine-2-carboxylic acid (3-carbamoylmethyl-oxetan-3-yl)-amide]	7.50	< 5.00
